The values that follow come from patent publication EP2102204B1, “NEW AMINOPYRROLO[1,2- A]INDOLE ET AMINOPYRIDAZINO[1,6-A]INDOLE DERIVATIVES, METHOD FOR PREPARING THE SAME AND PHARMACEUTICAL COMPOSITIONS CONTAINING THE SAME” (Les Laboratoires Servier, priority 2007, dated 2008).

Data set [1] deals with cellules endothéliales confluentes de capillaires bovins. Nature of the data set: Prediction of blood-brain barrier passage (permeability across endothelial cell layer on filter). The note with it: 20 µM; LC-MS-MS in lower compartment after 10, 20, 30, 40 et 60 minutes; result as class. Format: in vitro ADME. Details: key: élevé; intermédiaire; faible. As for the experimental part: Les substances sont incubées à 20 µM dans le compartiment supérieur d'une double cuve séparé du compartiment inférieur soit par un filtre de polycarbonate seul, soit par le même filtre recouvert de cellules endothéliales confluentes de capillaires bovins. L'évaluation de la cinétique de perméabilité est réalisée par quantification LC-MS-MS de la substance inchangée dans le compartiment inférieur après 10, 20, 30, 40 et 60 minutes. Les dérivés testés présentent un passage généralement élevé de la BHE favorisant la cible neurologique. Les résultats sont rendus sous forme de classes : élevé, intermédiaire, faible. Ainsi, l'exemple 17 présente un passage élevé de la BHE.

Data set [2] concerns protéine tyrosine hydroxylase (TH). In words: Induction of tyrosine hydroxylase in the locus coeruleus of mice (immunodetection and image analysis of brain sections). It is filed as in vivo, souris Balb/C. The note with it: i.p. 20 mg/kg, single injection, 3 days after, % par rapport à la valeur moyenne du groupe témoin. The text has this:
Il est recherché, parmi les dérivés, ceux qui sont capables d'induire une augmentation de la protéine tyrosine hydroxylase (TH) dans le cerveau de la souris Balb/C, au niveau du locus coeruleus (LC).
Les animaux utilisés sont des souris mâles de la lignée pure Balb/C (Charles River Laboratories), âgées de 7 à 8 semaines au moment du traitement.
Les souris reçoivent une injection unique par voie intrapéritonéale du composé à tester, dissous dans une solution d'HCl 0,04 M (contrôle correspondant : HCl […]) si le composé est suffisamment soluble, ou dans l'huile d'olive 90 % / DMSO 10 % (contrôle correspondant : huile d'olive 90 % / DMSO 10 %) pour les composés insolubles en milieu aqueux.
Trois jours après l'injection de chaque molécule, tous les animaux sont sacrifiés par décapitation. Les cerveaux extraits sont ensuite congelés dans de l'azote liquide et conservés à -80° C.
Des coupes coronales de 8 microns d'épaisseur sont pratiquées le long de l'axe postéro-antérieur du LC et fixées. Les coupes sont transférées sur membranes Immobilon-P. La TH est mesurée par immunodétection et analyse d'image.

Data set [3] concerns récepteurs adrénergiques alpha (de type α2). In words: Receptor affinity, displacement of labelled specific ligand. Format: binding. As to conditions: concentration 10^-5 M. The text has this: (§1) L'affinité pour les récepteurs est déterminée selon les méthodes habituelles de relation entre le ligand spécifique et le récepteur, qui peut être d'origine animale ou un recombinant humain. Elle a été déterminée par la méthode du déplacement du ligand spécifique marqué par le composé étudié, et exprimée par la constante de dissociation Ki. L'affinité réceptorielle pour 28 récepteurs classiques a ainsi été étudiée. L'étude montre que l'induction de TH observée ne passe pas par une affinité vis-à-vis des récepteurs habituellement touchés par les produits psychotropes, comme les récepteurs adrénergiques alpha (de type α2), 5HT (de type 5HT2A), dopaminergiques (de type D1 et D2). Quelques dérivés montrent une affinité non négligeable pour les récepteurs sigma (σ) (ligand halopéridol) ou muscarinique (M). TABLEAU II

The next data set addresses D1 (Homo sapiens, UniProt P21728). Described as above. It is filed as binding. As to conditions: concentration 10^-5 M.
From the text: as §1

A further data set addresses 5HT2A (Homo sapiens, UniProt P28223). The data set is described as above. Format: binding.
From the text: as §1

5HT2A, sequence (P28223 whole entry, species assumed): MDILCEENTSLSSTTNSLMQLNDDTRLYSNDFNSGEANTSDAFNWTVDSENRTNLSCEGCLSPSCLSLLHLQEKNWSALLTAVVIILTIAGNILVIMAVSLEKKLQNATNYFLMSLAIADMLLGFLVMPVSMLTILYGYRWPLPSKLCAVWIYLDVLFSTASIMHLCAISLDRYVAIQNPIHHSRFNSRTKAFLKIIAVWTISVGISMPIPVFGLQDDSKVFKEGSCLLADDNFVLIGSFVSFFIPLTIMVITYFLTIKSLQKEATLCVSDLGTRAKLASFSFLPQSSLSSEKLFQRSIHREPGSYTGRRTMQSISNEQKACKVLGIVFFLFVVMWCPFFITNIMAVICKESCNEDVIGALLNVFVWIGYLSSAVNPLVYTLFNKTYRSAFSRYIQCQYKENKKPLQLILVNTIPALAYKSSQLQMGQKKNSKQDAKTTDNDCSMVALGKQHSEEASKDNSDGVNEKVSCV
D1, sequence (P21728 whole entry): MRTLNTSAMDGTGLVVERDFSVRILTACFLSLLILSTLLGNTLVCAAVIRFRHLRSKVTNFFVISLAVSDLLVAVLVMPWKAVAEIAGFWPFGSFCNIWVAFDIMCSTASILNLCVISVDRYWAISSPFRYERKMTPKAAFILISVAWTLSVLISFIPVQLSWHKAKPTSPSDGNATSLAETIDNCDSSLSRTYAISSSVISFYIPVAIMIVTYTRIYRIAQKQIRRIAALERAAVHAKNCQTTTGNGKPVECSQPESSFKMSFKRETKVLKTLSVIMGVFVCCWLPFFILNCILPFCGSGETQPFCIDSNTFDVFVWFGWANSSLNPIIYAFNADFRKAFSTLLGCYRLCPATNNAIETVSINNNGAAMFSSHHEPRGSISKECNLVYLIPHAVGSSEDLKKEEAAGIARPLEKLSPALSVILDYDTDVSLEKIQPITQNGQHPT

Take `CCCN1CC[C@H]2c3ccccc3N3NC(=O)C[C@@H]1[C@@H]23` (racemic) [Exemple 17, (3aRS,6aSR,10cRS)-4-Propyl 3a,4,5,6,6a,10c-hexahydro-3H-1,4,10b-triazafluoranthén-2-one]: the “passage de la BHE” value in data set [1] is on record as “élevé”. The “quantité de TH au niveau du LC, coupe 1” value in data set [2] (coupe 1 du LC (sens antérieur vers postérieur)) was 73%. Moreover, the “quantité de TH au niveau du LC, coupe 2” value in data set [2] (coupe 2 du LC (sens antérieur vers postérieur)) was determined as 72%. Also, the “quantité de TH au niveau du LC, coupe 3” value in data set [2] (coupe 3 du LC (sens antérieur vers postérieur)) amounted to 56%. The “quantité de TH au niveau du LC, coupe 4” value in data set [2] (coupe 4 du LC (sens antérieur vers postérieur)) worked out at 38%. Besides, the “quantité de TH au niveau du LC, coupe 5” value in data set [2] (coupe 5 du LC (sens antérieur vers postérieur)) amounted to 34%. In addition, the “quantité de TH au niveau du LC, coupe 6” value in data set [2] (coupe 6 du LC (sens antérieur vers postérieur)) is reported as 36%. For the same compound, the “quantité de TH au niveau du LC, coupe 7” value in data set [2] (coupe 7 du LC (sens antérieur vers postérieur)) is 13%. The “quantité de TH au niveau du LC, coupe 8” value in data set [2] (coupe 8 du LC (sens antérieur vers postérieur)) came to 3%.

For `CN1CCC[C@@H]2C(=O)N3c4ccccc4C[C@H]3[C@@H]21` [Exemple 45, (4aS,11aS,11bR)-1-Méthyl-1,2,3,4,4a,11,11a,11b-octahydropyrido[2',3':3,4]pyrrolo[1,2-a]indol-5-one], the “% d'inhibition α2” value in data set [3] is 23%. Moreover, at D1, the “% d'inhibition D1” value was found to be 49%. Further, the inhibition at 10 µM on 5HT2A (read-out: % d'inhibition 5HT2A, concentration 10^-5 M) amounted to 92%. The inhibition at 0.1 µM on 5HT2A (read-out: % d'inhibition 5HT2A, concentration 10^-7 M) was found to be 13%.
